Results as given in US20240276935A1, “METHODS FOR ENHANCING DISEASE RESISTANCE AND INCREASING BIOMASS YIELD AND SECONDARY METABOLITE QUANTITIES IN CANNABIS SATIVA UTILIZING PLANT DEFENSE-RESPONSE ELICITORS” (priority 2023, published 2024).

Assays:
[1] = system: C. sativa; set-up: species or system Cannabis sativa; settings: in vivo
[2] = system: medical cannabis variety; settings: 0.1 mM, foliar application; cited from earlier work
[3] = system: Fusarium sp.; test: Protective effect on rooting clones of C. sativa against Fusarium sp. (Table 1); assay type: in vivo; settings: for Total Alive: cultivar III clones alive; for Total Alive / Total Dead: total of 30 replicate clones per elicitor treatment; for Total Dead: cultivar III clones dead; for Mean Survival: rooting clones of cultivar III, sprayed daily ~2 ml solution/clone, inoculated with Fusarium culture (~10^3 Cfu/ml), survival one week later, three repeats of 10 clones
Method: Cultivar III was shown from the data in FIG. 1B to be most susceptible to mold pathogens. Thus, 10 clones of cultivar III were selected to be treated with formulations containing bacterial/fungal PAMP elicitor compounds (as listed in Table 1) formulated in water. Treatments were performed by spraying the clones daily with ˜2 ml solution/clone, starting one week after cutting. Plants were inoculated two weeks after cutting (one week after treatment application) by applying 10 ml Fusarium culture (˜10^3 Cfu/ml) to the water tray. After one hour, clones were removed and placed in clean water trays. Survival was assessed one week later upon reaching the vegetative growth phase. The experiment was repeated three times for a total of 30 replicate clones per elicitor treatment.

[4] = system: cannabis sativa; settings: cited from earlier work

| SMILES | Yield (g/plant), Cultivar I [1] [g/plant] | Yield (g/plant), Cultivar II [1] | Yield (g/plant), Cultivar III [1] [g/plant] | increase of CBDA content in inflorescences [2] [%] | Total Alive [3] | Total Dead [3] | Mean Survival [3] [%] | A9-THC in extract ([4]; 1 M of SA (highest)) [%] | CBD in extract ([4]; 1 M of SA (highest)) [%] | TPC, TFC, TCC, Chl a, Chl b, and antioxidant capacity ([4]; 1 M treatment, lowest in control plants) |
| --- | --- | --- | --- | --- | --- | --- | --- | --- | --- | --- |
| COc1cc(/C=C/CO)ccc1O [Coniferyl Alcohol] | 13.6 ± 2.9 | 12.8 ± 1.3 g/plant | 12.4 ± 1.8 | – | – | – | – | – | – | – |
| O=C(O)[C@H]1OC(O)[C@H](O)[C@@H](O)[C@H]1O (stereo partly shown) [D Galactoronic Acid] | 13.5 ± 1.8 | 11.5 ± 2.1 g/plant | 10.2 ± 1.8 | – | – | – | – | – | – | – |
| CC/C=C\CC1C(=O)CCC1CC(=O)OC (stereo not shown) [MeJA, methyl jasmonate] | – | – | – | 15.6 | – | – | – | – | – | – |
| CC(=O)N[C@H]1C(O)O[C@H](CO)[C@@H](O)[C@@H]1O (stereo partly drawn) [N-Acetyl-D-Glucosamine (4), N-Acetyl-D-Glucosamine] | 11.6 ± 1.7 | 10.7 ± 1.9 g/plant | 9.2 ± 0.7 | – | 21 | 9 | 70.0 | – | – | – |
| CC(=O)N[C@H]1C(O)O[C@H](CO)[C@@H](O)[C@@H]1O[C@H](C)C(=O)O (stereo partly shown) [N-Acetylmuramic Acid] | 13.4 ± 2.1 | 11.5 ± 2^ g/plant | 11.5 ± 1.6 | – | 21 | 9 | 70.0 | – | – | – |
| OC/C=C/c1ccc(O)cc1 [Paracoumaryl Alcohol] | 14.7 ± 2.5 | 9.2 ± 1 g/plant | 11.9 ± 2.9 | – | – | – | – | – | – | – |
| O=C(O)c1ccccc1O [SA, salicylic acid] | – | – | – | – | – | – | – | 22.84 | 37.81 | highest |
| COc1cc(/C=C/CO)cc(OC)c1O [Sinapyl Alcohol (Syringil monomer), Sinapyl Alcohol] | 16.4 ± 1.2 | 12.9 ± 2.1 g/plant | 13.5 ± 2.6 | – | – | – | – | – | – | – |
